Measurements as given in US8404287B2, “Use of Fructus schisandrae and extracts thereof in preventing and decreasing toxic and side effects of antineoplastic drugs” (priority 2005, dated 2013).
Where two headings read alike, the source gives them in different places.

Assays:
ICR mice [1] = settings: antineoplastic agent ip once every two days x7 (Methotrexate 2, Cisplatin 2, 5-fluorouracil 30, Cytoxan 30, Vincristine 0.3, Doxorubicin 4 mg/kg), alone or within 2 h after extract 400 mg/kg ig
From the text: The mice were grouped randomly as below, 6 mice per group.

ICR mice [2] = settings: antineoplastic agent ip once every two days x7 (Methotrexate 2, Cisplatin 2, 5-fluorouracil 30, Cytoxan 30, Vincristine 0.3 mg/kg), alone or within two hours after lignan 100 mg/kg ig
From the text: The mice were divided randomly as following, 6 mice per group.

[3] = test system: mice with acute toxicity induced by Doxorubicin; test: Survival rate of mice with acute toxicity induced by Doxorubicin, Schisandrin B (Example 7); format: in vivo, mouse
Description: Group of Doxorubicin: 42 mice were dosed intragastrically with normal saline at the 1st-3rd day of the experiment, once a day and each time with 20 ml/kg. At the 3rd day, the mice were injected into their abdominal cavities with Doxorubicin of 25 mg/kg.
At the 3rd day, the mice were injected into their abdominal cavities with 25 mg/kg of Doxorubicin 0.5 hours after drench.

[4] = test system: mice with myocardial damage induced by Doxorubicin; test: Serum myocardium enzymes (CK, CK-MB, LDH, GOT) after Doxorubicin, Schisandrin B (Example 7)
Description: CK, CK-MB, LDH and GOT were determined by automatic biochemistry analyzer.
Control group: 24 mice were dosed intragastrically with normal saline at the 1st-3rd day of the experiment, once a day and each time with 20 ml/kg.
Group of Schisandrin B (SchB group): 24 mice were dosed intragastrically with SchB at the 1st-3rd day of the experiment, once a day and each time with 100 mg/kg.
Group of Doxorubicin: 42 mice were dosed intragastrically with normal saline at the 1st-3rd day of the experiment, once a day and each time with 20 ml/kg.
At the 5th day (48 hours after injection of Doxorubicin into abdominal cavity), blood were taken from 6 mice of each group. The serum was separated by regular separation. CK, CK-MB, LDH and GOT were determined by automatic biochemistry analyzer.

[5] = test system: left ventricular myocardium matrix metalloproteinase (MMP-2); test: Left ventricular myocardium MMP-2 activity, Schisandrin B (Example 7); format: in vivo, mouse
Description: The experimental method was carried out as those described in Example 2 (1.4).

ICR mice [6] = test: Apparent condition of mice, ethanol extract and Doxorubicin (Example 2); format: in vivo, mouse; settings: Doxorubicin alone or with extract ig 3 times
ICR mice [7] = settings: Doxorubicin alone or in combination with dibenzocyclooctadiene lignans
Description: Doxorubicin Hydrochloride Injection was obtained from Italy pharmacia Co. Six Dibenzocyclooctadiene lignans were obtained from National Institute for the Verification of Pharmaceutical and Biological Products (Product No.: 110765-200407), which were dissolved in 0.5% Poloxamer. Female ICR mice with a body weight of 25-30 g were obtained from Shanghai Experimental Animal Center, which were grouped randomly into 4 groups, 10 mice per group.
Group of Doxorubicin (Dox group): 10 mice were injected into their abdominal cavities with 2 mg/kg of Doxorubicin once every two days, consecutively for 7 times.

[8] = test system: mice with acute toxicity induced by Doxorubicin; test: Survival rate of mice with acute toxicity induced by Doxorubicin, ethanol extract (Example 2); format: in vivo, mouse
Description: Group of Doxorubicin (the Dox group): 42 mice were dosed intragastrically with normal saline in an amount of 20 ml/kg each time at the 1st-3rd day of the experiment, once a day. At the 3rd day, the mice were injected with Doxorubicin of 25 mg/kg into their abdominal cavities.
Group 1 of Doxorubicin plus the extract of Fructus schisandrae (group 1 of Dox +X): 24 mice were dosed intragastrically with the extract of Fructus schisandrae in an amount of 400 mg/kg each time at the 1st-3rd day of the experiment, once a day. At the 3rd day, the mice were injected with 25 mg/kg of Doxorubicin into their abdominal cavities 0.5 hours after drench.
Group 2 of Doxorubicin plus the extract of Fructus schisandrae (group 2 of Dox +X): 24 mice were dosed intragastrically with the extract of Fructus schisandrae in an amount of 200 mg/kg each time at the 1st-3rd day of the experiment, once a day. At the 3rd day, the mice were injected with 25 mg/kg of Doxorubicin into their abdominal cavities 0.5 hours after drench.

[9] = test system: mice with myocardial damage induced by Doxorubicin; test: Serum myocardium enzymes (CK, CK-MB, LDH, GOT) after Doxorubicin, ethanol extract (Example 2); format: in vivo, mouse; settings: Dox group: Doxorubicin 25 mg/kg ip at 3rd day; vs control group and X group (P<0.05); 48 h after injection
Description: Ethanol extract of Fructus schisandrae prepared from Example 1 was dissolved in 0.5% Poloxamer. CK (creatine kinase), CK-MB (creatine kinase isozyme), LDH (lactic dehydrogenase) and GOT (glutamic-oxalocetic transaminase) were detected by automatic biochemistry analyzer.
The serum was separated by regular separation and frozen at −80° C.

## O=P1(N(CCCl)CCCl)NCCCO1 (stereo not shown) [Cytoxan]
ICR mice [1]
  Heart weight: 162.6 ± 31.4 mg
  Kidney weight: 396.3 ± 54.7 mg
  Liver weight: 1.88 ± 0.36 g
  Spleen weight: 113.5 ± 24.7 mg
  Thymus weight: 49.8 ± 12.4 mg
ICR mice [2]
  Heart weight: 162.6 ± 31.4 mg
  Kidney weight: 396.3 ± 54.7 mg
  Liver weight: 1.88 ± 0.36 g
  Spleen weight: 113.5 ± 24.7 mg
  Thymus weight: 49.8 ± 12.4 mg

## COc1cc2c(c(OC)c1OC)-c1c(cc3c(c1OC)OCO3)CC(C)C(C)C2 (stereo not shown) [Schisandrin B]
[3]; FIG. 15
  death of mouse induced by Doxorubicin: inhibit the death
[4]; FIG. 10
  increase of mouse serum creatine kinase (CK) induced by Doxorubicin: inhibit the increase
[4]; FIG. 11
  increase of mouse serum creatine kinase isozyme (CK-MB) induced by Doxorubicin: inhibit the increase
[4]; FIG. 12
  increase of mouse serum glutamic-oxalocetic transaminase (GOT) induced by Doxorubicin: inhibit the increase
[4]; FIG. 13
  increase of mouse serum lactic dehydrogenase (LDH) induced by Doxorubicin: inhibit the increase
[5]; FIG. 14
  increase of mouse left ventricular myocardium MMP-2 activity induced by Doxorubicin: inhibit the increase
[5]; Sch B group: 100 mg/kg ig days 1-3, no Doxorubicin
  left ventricular myocardium MMP-2 activity: No left ventricular myocardium matrix metalloproteinase (MMP-2) activity

## COc1cccc2c1C(=O)c1c(O)c3c(c(O)c1C2=O)C[C@@](O)(C(=O)CO)C[C@@H]3O[C@H]1C[C@H](N)[C@H](O)[C@H](C)O1 [Doxorubicin]
ICR mice [6]
  apparent condition of mice: in bad conditions, manifested as asthenia, listlessness, hypotrichosis
ICR mice [7]
  apparent conditions of mice: in bad conditions after 7-8 days, manifested as asthenia, listlessness and hypotrichosis
[3]; Doxorubicin 25 mg/kg ip alone
  survival rate on the 7th day: 0
[3]; Doxorubicin 25 mg/kg ip, alone or with Sch B 100, 50 or 25 mg/kg ig days 1-3
  day on which death of mice occurred: 4 days
[8]; Dox group: Doxorubicin 25 mg/kg ip alone
  survival rate on the 7th day: 3.7%
[8]; Doxorubicin 25 mg/kg ip, alone or with extract 400 or 200 mg/kg ig days 1-3
  day on which death of mice occurred: 5 days
[4]; Doxorubicin 25 mg/kg ip alone, vs control group and Sch B group (P<0.05), 48 h after injection
  4 serum enzyme indexes (CK, CK-MB, LDH, GOT): significantly higher
[9]
  serum myocardium enzyme spectrum indexes (CK, CK-MB, LDH, GOT): significantly higher
